Laboratory results from patent publication US10335411B2, “Administration of ubiquitin-activating enzyme inhibitor and radiation” (Millennium Pharmaceuticals, Inc., priority 2014, dated 2019).
Where “and” joins values, the source holds several entries; their conditions need not be identical. Equal values may be shown once.

What was measured:
HN-13-0014 xenograft = HN-13-0014 xenograft model, Compound 1 and radiation; assay type: in vivo, mice
Excerpt: The HN-13-0014 xenograft model is a human head and neck primary tumor model. Approximately nine week old female BALB/c nude (Shanghai Sino-British SIPPR/BK Laboratory Animal Co., LTD.) mice were implanted subcutaneously with approximate 30 mm^3 HN-13-0014 tumor slices in the right flank. When the mean tumor volume reached approximately 162 mm^3, the animals were randomized into 10 treatment groups (n=8/group).
Compound 1 [((1R,2R,3S,4R)-2,3-dihydroxy-4-(2-(3-(trifluoromethylthio) ? phenyl)pyrazolo[1,5-a]pyrimidin-7-ylamino)cyclopentyl)methyl sulfamate] is formulated in 10% HPbCD in sterile water and administered intravenously on a BIW (twice/week schedule; Monday and Thursday, i.e. days 0, 3, 7, 10, 14, 17) for 3 weeks in the HN-13-0014 and LU-01-0030 (first study) models. Compound 1 formulation was prepared weekly and stored at room temperature in the dark.
Beam-focused radiation was delivered using a either 1 or 2 Gray dosed on days 0, 1, 7, and 8 or on days 0, 3, 7, and 10 in the HN-13-0014 and LU-01-0030 (first study) models. A Rad Source RS-2000 X-ray irradiator was used for therapy (Rad Source). Before radiation, animals were anesthetized by i.p. injection using 1.0% sodium pentobarbital at 80 mg/kg (Vendor: Sigma). Focused radiation was applied to each mouse at 1 Gy/min.
Tumors were measured twice weekly using vernier calipers. Tumor volumes were calculated using the following formula: (0.5×[length×width^2]). Treatment groups and dosing/treatment schedules are indicated in Tables 1a, 2a, 3a, 4a, and 5a below. Tumor size and body weight are measured approximately twice a week for the duration of the study. Mice are euthanized when their tumor volume reached approximately 1000 mm^3. Tumor growth continued to be monitored after the dosing period in some studies. In Tables 1a, 2a, 3a, 4a, and 5a tumor volumes are shown for HN-13-0014 (day 21), LU-01-0030 (day 21), the second LU-01-0030 study (day 20), LU-01-0266 (day 20), ST-02-0004 (day 21) and FIN-13-0007 (day 24), respectively. Average tumor volume is reported as a function of time for selected groups of selected studies.
Measurements from day 0 to day 20, day 21 or day 24 are analyzed as specified in Tables below. All tumor volumes have a value of 1 added to them before log10 transformation. For each animal, the log tumor volume at day 0 is subtracted from the log tumor volume on the subsequent days. This difference vs. time is used to calculate an area under the curve (AUC) for each animal using the trapezoid rule. In instances when an animal in a treatment group is removed early from the study, the last observed tumor value is carried forward through all subsequent time points. The synergy score for the combination of agents A and B is defined as 100*(mean(AUCAB)−mean(AUCA)−mean(AUCB)+mean(AUCctl))/mean(AUCctl): where AUCAB, AUCA, AUCB, and AUCctl are the AUC values for animals in the combination group, the A group, the B group, and the control group, respectively. The standard error of the synergy score is computed based on the variation in the AUC values among the animals. […] If the P-value is above 0.05, then the combination is considered to be additive. If the P-value is below 0.05, and the synergy score is less than zero, then the combination is considered to be synergistic. If the P-value is below 0.05 and the synergy score was greater than zero, but the mean AUC for the combination was lower than the lowest mean AUC among the two single agent treatments, then the combination was sub-additive. If the P-value is below 0.05 and if the synergy score was greater than zero, and the mean AUC for the combination was greater than the mean AUC for at least one of the single agent treatments, then the combination was antagonistic.

HCT-116 cells = assay: In vitro colony formation assay; assay type: cell-based; settings: after 10 days, replicate wells
Method: General Method: HCT-116 cells are grown in McCoy's 5A Medium supplemented with 10% fetal bovine serum. Cells are seeded (200/well) on a 12-well plate. The next day cells are treated with increasing concentrations of Compound 1 (in medium) and 2 hours later irradiated with 0, 2 or 4 gray. After an additional 6 hour, medium is replaced with and without (washout condition) Compound 1. After 10 days the number of colonies is counted and recorded. Radiator used is an X-ray irradiator (MBR-1520R-3, Hitachi Power Solutions Co., Ltd.).
Ten days following initiation of treatment, the number of HCT-116 colonies per well is counted using GelCount™ (Oxford Optronix Ltd.) and the raw data results are indicated in Table 6.

[1] = 6.25 mg/kg Compound 1 + 2 Gy Radiation D0, 1, 7, 8
[2] = 6.25 mg/kg Compound 1 + 2 Gy Radiation D0, 3, 7, 10
[3] = 15 mg/kg Compound 1 + 2 Gy Radiation D0, 1, 7, 8
[4] = 15 mg/kg Compound 1 + 2 Gy Radiation D0, 3, 7, 10

Which Classification (HN-13-0014 xenograft; [1]) does the source give for `NS(=O)(=O)OC[C@H]1C[C@@H](Nc2ccnc3cc(-c4cccc(SC(F)(F)F)c4)nn23)[C@H](O)[C@@H]1O` [Compound 1, ((1R,2R,3S,4R)-2,3-dihydroxy-4-(2-(3-(trifluoromethylthio)phenyl)pyrazolo[1,5-a]pyrimidin-7-ylamino)cyclopentyl)methyl sulfamate] here?
Its Classification is “Additive (If the P-value is above 0.05, then the combination is considered to be additive)”.

And the Synergy score (HN-13-0014 xenograft; [1])?
The Synergy score was 8.6.

And the Classification (HN-13-0014 xenograft; [2])?
Its Classification is “Additive (If the P-value is above 0.05, then the combination is considered to be additive)”.

What about the Synergy score (HN-13-0014 xenograft; [2]) of the same compound?
The Synergy score was 7.7.

What about the “Tumor Volume Day 21” value (HN-13-0014 xenograft; 6.25 mg/kg Compound 1 IV BIWx3 + 2 Gy Radiation Beam D 0, 1, 7, 8) of the same compound?
The value was 392.7 mm^3.

What about the “Tumor Volume Day 21” value (HN-13-0014 xenograft; 6.25 mg/kg Compound 1 IV BIWx3 + 2 Gy Radiation Beam D 0, 3, 7, 10) of the same compound?
Its value is 381.9 mm^3.

What about the “Tumor Volume Day 21” value (HN-13-0014 xenograft; 6.25 mg/kg Compound 1 IV BIWx3, single agent) of the same compound?
Its value is 575.9 mm^3.

And the Classification (HN-13-0014 xenograft; [3])?
Its Classification is “Additive (If the P-value is above 0.05, then the combination is considered to be additive)”.

What about the Synergy score (HN-13-0014 xenograft; [3]) of the same compound?
Its Synergy score is 7.9.

What about the Classification (HN-13-0014 xenograft; [4]) of the same compound?
The Classification was “Additive (If the P-value is above 0.05, then the combination is considered to be additive)”.

And the Synergy score (HN-13-0014 xenograft; [4])?
Its Synergy score is 3.2.

What about the “Tumor Volume Day 21” value (HN-13-0014 xenograft; 15 mg/kg Compound 1 IV BIWx3 + 2 Gy Radiation Beam D 0, 1, 7, 8) of the same compound?
The value was 372.4 mm^3.

And the “Tumor Volume Day 21” value (HN-13-0014 xenograft; 15 mg/kg Compound 1 IV BIWx3 + 2 Gy Radiation Beam D 0, 3, 7, 10)?
The value was 356.2 mm^3.

What about the “Tumor Volume Day 21” value (HN-13-0014 xenograft; 15 mg/kg Compound 1 IV BIWx3, single agent) of the same compound?
The value was 539.9 mm^3.

And the combination effect (HN-13-0014 xenograft; Compound 1 with 2 Gy radiation)?
Its combination effect is “additive combination effect”.

What about the “anti-tumor activity compared to vehicle control” value (HN-13-0014 xenograft; single agent, IV at 6.25 and 15 mg/kg BIW for 3 weeks) of the same compound?
Its value is “modest anti-tumor activity”.

And the “Number of Colonies/well” value (HCT-116 cells; Washout No, Radiation 0 Gray, Compound 1 30 nM)?
Its value is 0.

And the “Number of Colonies/well” value (HCT-116 cells; Washout No, Radiation 0 Gray, Compound 1 100 nM)?
Its value is 0.

What about the “Number of Colonies/well” value (HCT-116 cells; Washout No, Radiation 0 Gray, Compound 1 300 nM) of the same compound?
Its value is 0.

What about the “Number of Colonies/well” value (HCT-116 cells; Washout No, Radiation 2 Gray, Compound 1 30 nM) of the same compound?
The value was 0.

And the “Number of Colonies/well” value (HCT-116 cells; Washout No, Radiation 2 Gray, Compound 1 100 nM)?
The value was 0.

And the “Number of Colonies/well” value (HCT-116 cells; Washout No, Radiation 2 Gray, Compound 1 300 nM)?
The value was 0.

And the “Number of Colonies/well” value (HCT-116 cells; Washout No, Radiation 4 Gray, Compound 1 30 nM)?
The value was 0.

What about the “Number of Colonies/well” value (HCT-116 cells; Washout No, Radiation 4 Gray, Compound 1 100 nM) of the same compound?
Its value is 0.

What about the “Number of Colonies/well” value (HCT-116 cells; Washout No, Radiation 4 Gray, Compound 1 300 nM) of the same compound?
The value was 0.

What about the “Number of Colonies/well” value (HCT-116 cells; Washout Yes, Radiation 0 Gray, Compound 1 30 nM) of the same compound?
The value was 20 (2×) and 26.

What about the “Number of Colonies/well” value (HCT-116 cells; Washout Yes, Radiation 0 Gray, Compound 1 100 nM) of the same compound?
Its value is 1 (2×) and 0.

And the “Number of Colonies/well” value (HCT-116 cells; Washout Yes, Radiation 0 Gray, Compound 1 300 nM)?
The value was 0.

And the “Number of Colonies/well” value (HCT-116 cells; Washout Yes, Radiation 2 Gray, Compound 1 30 nM)?
Its value is 3 and 7 and 6.

What about the “Number of Colonies/well” value (HCT-116 cells; Washout Yes, Radiation 2 Gray, Compound 1 100 nM) of the same compound?
Its value is 0.

What about the “Number of Colonies/well” value (HCT-116 cells; Washout Yes, Radiation 2 Gray, Compound 1 300 nM) of the same compound?
The value was 0.

And the “Number of Colonies/well” value (HCT-116 cells; Washout Yes, Radiation 4 Gray, Compound 1 30 nM)?
The value was 1 (2×) and 4.

And the “Number of Colonies/well” value (HCT-116 cells; Washout Yes, Radiation 4 Gray, Compound 1 100 nM)?
Its value is 0 (2×) and 1.

What about the “Number of Colonies/well” value (HCT-116 cells; Washout Yes, Radiation 4 Gray, Compound 1 300 nM) of the same compound?
The value was 0.
